Source: patent US10118966B2, “Anti-EGFR monoclonal antibody, methods of making, and uses thereof in the treatment of cancer” (Shanghai Biomabs Pharmaceuticals Co., Ltd., priority 2015, dated 2018)
Like-named read-outs stand apart in the source and are kept apart here.

How the values were obtained:
[1] = system: metastatic colorectal cancer; test: CMAB009 Ph2/3 trial; assay type: in vivo, human
Experimental: 501 patients were identified and randomized in a 2:1 manner to group 1 or group 2. […] Patients in both groups were treated until the disease progressed or the patient reached an unacceptable level of toxicity.
Patients were evaluated for radiologic response in both group 1 and group 2. […] Note the overall response rate (ORR) in Table 6 was determined according to the sum of the rate of CR and PR, and the disease control rate (DCR) was determined according to the sum of the rates of CR, PR, and SD.

[2] = system: metastatic colorectal cancer; conditions: EPIC, cited from earlier work
[3] = radiologic response, n = 337 / n = 164
[4] = radiologic response, n = 648 / n = 650

CCc1c2c(nc3ccc(OC(=O)N4CCC(N5CCCCC5)CC4)cc13)-c1cc3c(c(=O)n1C2)COC(=O)[C@]3(O)CC [Irinotecan monotherapy, irinotecan]
Time to disease progression ([1]; CMAB009 Ph2/3 trial): 3.2 months | Test drug-related death AE, no. of patients ([1]; N = 342 / N = 170): 0 | At least one ADR, % ([1]; human, in vivo): (74.1%) | At least one ADR, no. of patients ([1]; human, in vivo): 126 | At least one AE which lead to stop drug treatment, % ([1]; human, in vivo): (15.9%) | At least one AE which lead to stop drug treatment, no. of patients ([1]; human, in vivo): 27 | At least one AE, % ([1]; human, in vivo): (87.1%) | At least one AE, no. of patients ([1]; human, in vivo): 148 | At least one Level III or above ADR, % ([1]; human, in vivo): (5.9%) | At least one Level III or above ADR, no. of patients ([1]; human, in vivo): 10 | At least one Level III or above AE, % ([1]; human, in vivo): (7.1%) | At least one Level III or above AE, no. of patients ([1]; human, in vivo): 12 | At least one Level III or above important AE, % ([1]; human, in vivo): (6.5%) | At least one Level III or above important AE, no. of patients ([1]; human, in vivo): 11 | At least one SAE, % ([1]; human, in vivo): (4.7%) | At least one SAE, no. of patients ([1]; human, in vivo): 8 | At least one important AE, % ([1]; human, in vivo): (70.6%) | At least one important AE, no. of patients ([1]; human, in vivo): 120 | At least one test drug-related SAE, % ([1]; human, in vivo): (0.6%) | At least one test drug-related SAE, no. of patients ([1]; human, in vivo): 1 | Grade 3-4 adverse events: Abdominal pain, no. of patients ([1]; human, in vivo): 0 | Grade 3-4 adverse events: Acne-like rash, no. of patients ([1]; human, in vivo): 0 | Grade 3-4 adverse events: Anemia, no. of patients ([1]; human, in vivo): 3 | Grade 3-4 adverse events: Anemia, rate in parentheses ([1]; human, in vivo): 1.8 | Grade 3-4 adverse events: Any, no. of patients ([1]; human, in vivo): 57 | Grade 3-4 adverse events: Asthenia, no. of patients ([1]; human, in vivo): 6 | Grade 3-4 adverse events: Asthenia, rate in parentheses ([1]; human, in vivo): 3.7 | Grade 3-4 adverse events: Diarrhea, no. of patients ([1]; human, in vivo): 12 | Grade 3-4 adverse events: Diarrhea, rate in parentheses ([1]; human, in vivo): 7.3 | Grade 3-4 adverse events: Fever, no. of patients ([1]; human, in vivo): 1 | Grade 3-4 adverse events: Fever, rate in parentheses ([1]; human, in vivo): 0.9 | Grade 3-4 adverse events: Nausea and vomiting, no. of patients ([1]; human, in vivo): 16 | Grade 3-4 adverse events: Nausea and vomiting, rate in parentheses ([1]; human, in vivo): 9.8 | Grade 3-4 adverse events: Neutropenia, no. of patients ([1]; human, in vivo): 14 | Grade 3-4 adverse events: Neutropenia, rate in parentheses ([1]; human, in vivo): 8.5 | Grade 3-4 adverse events: Stomatitis, no. of patients ([1]; human, in vivo): 0 | Grade 3-4 adverse events: Thrombocytopenia, no. of patients ([1]; human, in vivo): 0 | Complete response, no. of patients [1, 3]: 1 | Complete response, rate in parentheses [1, 3]: (0.6) | Partial response, no. of patients [1, 3]: 20 | Partial response, rate in parentheses [1, 3]: (12.2) | Progressive disease, no. of patients [1, 3]: 44 | Progressive disease, rate in parentheses [1, 3]: (26.8) | Stable disease, no. of patients [1, 3]: 86 | Stable disease, rate in parentheses [1, 3]: (52.4) | Unable to evaluate, no. of patients [1, 3]: 13 | Unable to evaluate, rate in parentheses [1, 3]: (7.9) | Overall response rate, no. of patients ([1]; sum of CR and PR, n = 337 / n = 164): 21 | Disease control rate, no. of patients ([1]; sum of CR, PR and SD, n = 337 / n = 164): 107 | Overall response rate, rate in parentheses ([1]; sum of the rate of CR and PR, n = 337 / n = 164): (12.8 | Disease control rate, rate in parentheses ([1]; sum of the rates of CR, PR, and SD, n = 337 / n = 164): (65.2 | Overall survival [2]: 10.0 months | Time to disease progression [2]: 2.6 months | Disease control rate, no. of patients ([2]; n = 648 / n = 650): 298 | Disease control rate, rate in parentheses ([2]; n = 648 / n = 650): (45.8) | Overall response rate, no. of patients ([2]; n = 648 / n = 650): 27 | Overall response rate, rate in parentheses ([2]; n = 648 / n = 650): (4.2 | Complete response, no. of patients [2, 4]: 1 | Complete response, rate in parentheses [2, 4]: (0.2) | Partial response, no. of patients [2, 4]: 26 | Partial response, rate in parentheses [2, 4]: (4.0) | Progressive disease, no. of patients [2, 4]: 243 | Progressive disease, rate in parentheses [2, 4]: (37.4) | Stable disease, no. of patients [2, 4]: 271 | Stable disease, rate in parentheses [2, 4]: (41.7) | Unable to evaluate, no. of patients [2, 4]: 72 | Unable to evaluate, rate in parentheses [2, 4]: (11.1)
